Article PMC10818931, “In Vitro Evaluation of Drug–Drug Interaction Potential of Epetraborole, a Novel Bacterial Leucyl-tRNA Synthetase Inhibitor” (Pharmaceuticals, 2024)
In brackets after ≈: the same amount, converted by molar mass. Read-outs that look alike come from different tables or passages of the source.

Legend:
[1] = target: T1, P-gp (Homo sapiens, UniProt P08183); experiment: Caco-2 efflux ratio without/with P-gp inhibitor (P-gp substrate); format: in vitro ADME; design: host or cells: Caco-2; settings: for efflux ratio: Caco-2, 1, 10, 100 µM, 1–4 h
T1 sequence (P08183 whole entry): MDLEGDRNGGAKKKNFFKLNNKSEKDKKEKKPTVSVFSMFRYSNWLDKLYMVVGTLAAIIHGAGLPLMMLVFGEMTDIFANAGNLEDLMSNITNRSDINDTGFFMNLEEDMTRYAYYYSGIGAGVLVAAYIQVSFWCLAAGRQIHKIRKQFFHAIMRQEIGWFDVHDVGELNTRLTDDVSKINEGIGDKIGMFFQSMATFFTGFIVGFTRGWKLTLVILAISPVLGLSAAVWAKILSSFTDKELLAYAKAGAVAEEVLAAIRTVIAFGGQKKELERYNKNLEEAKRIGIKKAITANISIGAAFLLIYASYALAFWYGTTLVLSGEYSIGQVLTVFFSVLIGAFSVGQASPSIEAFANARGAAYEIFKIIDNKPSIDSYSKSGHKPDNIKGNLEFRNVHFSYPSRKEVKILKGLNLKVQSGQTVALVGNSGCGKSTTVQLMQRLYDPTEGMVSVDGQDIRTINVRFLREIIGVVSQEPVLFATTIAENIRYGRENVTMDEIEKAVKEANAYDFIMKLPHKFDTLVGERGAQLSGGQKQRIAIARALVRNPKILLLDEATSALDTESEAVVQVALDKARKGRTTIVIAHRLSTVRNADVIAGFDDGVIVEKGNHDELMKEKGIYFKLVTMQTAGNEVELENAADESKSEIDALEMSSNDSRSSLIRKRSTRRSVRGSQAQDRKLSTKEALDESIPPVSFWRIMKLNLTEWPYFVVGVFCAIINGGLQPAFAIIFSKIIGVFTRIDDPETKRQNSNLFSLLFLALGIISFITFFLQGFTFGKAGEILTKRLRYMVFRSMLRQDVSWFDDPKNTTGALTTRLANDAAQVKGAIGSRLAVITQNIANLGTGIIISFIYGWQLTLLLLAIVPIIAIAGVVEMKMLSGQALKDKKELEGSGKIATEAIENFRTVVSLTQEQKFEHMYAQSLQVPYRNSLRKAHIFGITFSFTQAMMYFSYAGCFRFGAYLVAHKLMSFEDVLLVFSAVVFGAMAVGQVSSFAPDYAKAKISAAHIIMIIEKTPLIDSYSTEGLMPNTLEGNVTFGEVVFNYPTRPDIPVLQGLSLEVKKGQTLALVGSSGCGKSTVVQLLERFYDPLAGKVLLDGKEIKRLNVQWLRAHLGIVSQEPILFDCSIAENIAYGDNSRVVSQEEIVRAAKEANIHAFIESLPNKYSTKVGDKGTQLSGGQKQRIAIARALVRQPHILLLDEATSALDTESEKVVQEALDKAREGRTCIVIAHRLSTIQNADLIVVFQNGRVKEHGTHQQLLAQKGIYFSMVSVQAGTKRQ
Protocol: (§1) ^14C-EBO permeability in Caco-2 Cells (MDR1/Protein Glycoprotein or P-gp) was determined using methodologies described previously. The apparent permeability of ^14C-EBO was determined in both the apical to basolateral and the basolateral to apical directions, in triplicate, at final concentrations of 1, 10, and 100 μM. Cell monolayers were incubated with ^14C-EBO at 37 °C for 1, 2, 3, and 4 h. The transepithelial electrical resistance (TEER) values of the monolayers prior to and following each experiment were measured to confirm the integrity of the Caco-2 cell monolayers. The apparent permeability of ^14C-EBO (at a final concentration of 10 μM) was determined in both the apical to basolateral and basolateral to apical directions under the same conditions as previously described in the presence of P-gp inhibitors cyclosporine A (10 μM) and verapamil (100 μM) in the donor compartment.

[2] = Solubility in transport buffer; format: physicochemical; settings: aqueous buffer, read-out: Soluble up to
[3] = target: T2, BCRP (Homo sapiens, UniProt Q9UNQ0); experiment: Inhibition of BCRP-mediated efflux transport in BCRP-MDCK cells; format: in vitro ADME
T2 construct: host or cells: MDCK (BCRP-MDCK)
T2 sequence (Q9UNQ0 1-655): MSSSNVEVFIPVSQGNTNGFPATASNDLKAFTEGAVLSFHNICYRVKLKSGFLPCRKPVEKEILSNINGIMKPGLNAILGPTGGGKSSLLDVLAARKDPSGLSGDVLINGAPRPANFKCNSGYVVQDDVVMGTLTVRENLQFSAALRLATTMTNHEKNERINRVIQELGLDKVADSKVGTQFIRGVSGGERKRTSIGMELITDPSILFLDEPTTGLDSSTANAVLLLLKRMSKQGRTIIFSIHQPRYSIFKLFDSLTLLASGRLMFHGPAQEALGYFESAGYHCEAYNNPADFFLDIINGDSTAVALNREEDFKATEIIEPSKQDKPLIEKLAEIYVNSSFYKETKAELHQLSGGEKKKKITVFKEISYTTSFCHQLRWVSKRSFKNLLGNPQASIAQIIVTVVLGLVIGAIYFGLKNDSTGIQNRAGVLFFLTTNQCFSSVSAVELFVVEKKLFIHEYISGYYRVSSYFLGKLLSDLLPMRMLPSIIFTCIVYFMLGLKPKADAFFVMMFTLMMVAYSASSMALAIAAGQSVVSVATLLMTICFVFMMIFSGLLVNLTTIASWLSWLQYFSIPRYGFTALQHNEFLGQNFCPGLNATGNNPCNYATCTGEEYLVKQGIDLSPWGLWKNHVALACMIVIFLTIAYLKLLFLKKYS
Protocol: (§2) A preincubation with EBO or known inhibitor was performed on both sides to preload the cells. After 30 min, the preincubation solution was aspirated. Aliquots of fresh dosing solution with or without EBO or known inhibitor (0.55 mL for AP-to-BL, 1.55 mL for BL-to-AP) were added to the donor compartment, and HBSSg_7.4 with or without EBO or known inhibitor (1.5 mL for AP-to-BL, 0.5 mL for BL-to-AP) were added to the receiver compartment. Receiver samples (200 µL) and donor samples (50 µL) were taken at preselected time points.
(§3) Cell monolayer integrity was examined using lucifer yellow (excitation 450 nm and emission 538 nm). The concentrations of the probe substrate in the donor and receiver samples, as well as EBO in dosing solutions, were determined by LC-MS/MS.

[4] = Apparent permeability through Caco-2 cell monolayers; settings: human, Caco-2
Protocol: as §1

[5] = system: Caco-2 cell monolayers; experiment: as above; settings: in vitro
Protocol: as §1

[6] = target: T1, P-gp; experiment: Inhibition of P-gp digoxin efflux transport in MDR1-MDCK cells
Protocol: as §2, §3

[7] = target: T3, CYP2D6 (Homo sapiens, UniProt P10635); experiment: Automated time-dependent inhibition assay in HLM; format: in vitro ADME; settings: EBO 30 and 50 µM, 30 min preincubation with NADPH
T3 construct: Characterized, pooled, human hepatic microsomes from 15 individuals; tissue CellzDirect (Durham, NC, USA) or XenoTech LLC (Lenexa, KS, USA); host or cells: pooled human liver microsomes (15 donors)
T3 sequence (P10635 whole entry): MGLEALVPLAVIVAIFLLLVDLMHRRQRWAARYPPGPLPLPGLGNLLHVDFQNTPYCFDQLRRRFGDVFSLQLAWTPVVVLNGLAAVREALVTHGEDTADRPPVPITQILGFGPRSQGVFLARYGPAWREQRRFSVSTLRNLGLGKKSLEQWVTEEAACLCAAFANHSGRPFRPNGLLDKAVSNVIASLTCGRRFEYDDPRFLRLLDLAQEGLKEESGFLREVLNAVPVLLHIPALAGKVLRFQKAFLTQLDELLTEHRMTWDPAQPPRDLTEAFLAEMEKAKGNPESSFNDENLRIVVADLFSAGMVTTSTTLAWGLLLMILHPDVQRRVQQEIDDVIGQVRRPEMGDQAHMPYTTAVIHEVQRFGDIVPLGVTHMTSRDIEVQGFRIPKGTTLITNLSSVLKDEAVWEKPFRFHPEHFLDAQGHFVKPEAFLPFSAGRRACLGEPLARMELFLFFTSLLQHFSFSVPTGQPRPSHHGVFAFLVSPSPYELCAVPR
Protocol: The effect of EBO (30 and 50 µM) on time-dependent inhibition of CYP3A4 (testosterone and midazolam substrate) and CYP2D6 ([…] substrate) was determined using methodologies described previously. The Genesis robot (Tecan, Reading, UK) running Gemini software (https://www.tecan.com) was used to perform a fully automated TDI assay. The assay ran a preincubation (30 min at 37 °C, 1 mg/mL HLM incubation containing 1 mM NADPH and EBO) and a secondary incubation (containing 50 µL aliquot from the preincubation, 1 mM NADPH, and substrates for CYP3A4 and CYP2D6). At the end of the secondary incubation (15 min at 37 °C), an aliquot (50 µL) was removed and added to 100 µL of methanol to quench the reaction. Quenched samples were then chilled at −20 °C for 2 h, centrifuged at 2000× g for 15 min, and the supernatants were transferred to microtiter plates for LC/MS-MS analysis.

[8] = target: T2, BCRP; experiment: Substrate potential for BCRP, bidirectional permeability in BCRP-MDCK; format: in vitro ADME; settings: for Concentration in the receiver compartment: 5 µM, BCRP-MDCK and MDCK cells, A to B and B to A, Papp and efflux ratio could not be calculated; for as a Substrate: BCRP
[9] = cited from earlier work
[10] = EBO 500 mg PO q24h, healthy subjects, Study EBO-101, printed with "(unbound fraction)", read-out: Steady-state systemic total Cmax
[11] = human study of radiolabeled EBO

Question: For `NC[C@H]1OB(O)c2c(OCCCO)cccc21` [EBO, Epetraborole], which P-gp substrate ([1]; Caco-2, efflux ratio without/with P-gp inhibitor) is on record?
Answer: not a P-gp substrate

Question: And the “efflux ratio” value ([1]; vehicle (no P-gp inhibitor), listed as 14C-EBO)?
Answer: <2

Question: And the efflux ratio ([1]; human, with cyclosporine A (10 µM), Cyclosporine A (10 µM), read-out: Efflux Ratio)?
Answer: < 2

Question: And the efflux ratio ([1]; human, with verapamil (100 µM), Verapmil (100 µM), read-out: Efflux Ratio)?
Answer: < 2

Question: And the efflux ratio ([1]; human, vehicle (no P-gp inhibitor), read-out: Efflux Ratio)?
Answer: < 2

Question: What about the solubility ([2]; transport buffer pH 7.4) of the same molecule?
Answer: 17000 µM (≈ 4030 µg/mL)

Question: And the solubility ([2]; transport buffer pH 8.5)?
Answer: 100 µM (≈ 23.7 µg/mL)

Question: And the inhibition at 300 µM ([3]; human, BCRP-MDCK cells, pH 7.4, at 300 μM)?
Answer: 13%

Question: What about the inhibition at 1000 µM ([3]; human, BCRP-MDCK cells, pH 7.4, at 1000 µM) of the same molecule?
Answer: 27%

Question: And the Papp A→B [4]?
Answer: ≤ 0.31 ×10⁻⁶ cm/s

Question: What about the Papp B→A [4] of the same molecule?
Answer: ≤ 0.35 ×10⁻⁶ cm/s

Question: And the “Permeability (in words)” value [5]?
Answer: low permeability

Question: What about the IC50 [6] of the same molecule?
Answer: 5.65 mM

Question: What about the “[Igut]/IC50” value ([6]; human, pH 7.4) of the same molecule?
Answer: ≤ 3

Question: What about the inhibition at 17000 µM ([6]; human, pH 7.4) of the same molecule?
Answer: > 50%

Question: And the Time-dependent inhibition [7]?
Answer: No time-dependent inhibition

Question: And the “Concentration in the receiver compartment” value [8]?
Answer: below the lower limit of quantification

Question: What about the “as a Substrate” value [8] of the same molecule?
Answer: No

Question: What about the Cmax ([9]; 500 mg/day PO human clinical dose) of the same molecule?
Answer: 2850 ng/mL

Question: What about the Cmax [9, 10] of the same molecule?
Answer: 12 µM

Question: Which solubility ([2]; transport buffer pH 7.4) does the source give for `NC[C@H]1OB(O)c2c(OCCC(=O)O)cccc21` [M3] here?
Answer: 250 µM (≈ 62.8 µg/mL)

Question: And the solubility ([2]; transport buffer pH 8.5)?
Answer: 250 µM (≈ 62.8 µg/mL)

Question: What about the inhibition at 500 µM ([3]; human, BCRP-MDCK cells, pH 7.4, at 500 μM) of the same molecule?
Answer: 44%

Question: And the IC50 ([3]; read-out: as an Inhibitor, IC50)?
Answer: > 0.5 mM

Question: What about the “Concentration in the receiver compartment” value [8] of the same molecule?
Answer: below the lower limit of quantification

Question: And the “as a Substrate” value [8]?
Answer: No

Question: And the Cmax [9, 10]?
Answer: 20 µM

Question: What about the “Excretion (in words)” value [9, 11] of the same molecule?
Answer: excreted predominantly in the urine

Question: And the “Further metabolism (in words)” value [9, 11]?
Answer: not subject to further metabolism
